Consider 5 compounds from ChEMBL document CHEMBL5465560, “Selectivity Literature for EUbOPEN Chemogenomic Library” (2024).

Experiment [1] deals with Dual specificity mitogen-activated protein kinase kinase 2 (Homo sapiens) (UniProt P36507). As to the kind of experiment: Selectivity interaction (KinomeScan (DiscoverX)) EUB0000695a MAP2K2. The note with it: at 100 nM.
Experiment [2] concerns the target Serine/threonine-protein kinase PLK3 (Homo sapiens, UniProt Q9H4B4). Kind of experiment: Selectivity interaction (KinomeScan (DiscoverX)) EUB0000607a PLK3. As to conditions: at 10 µM.
Experiment [3] deals with Dual specificity protein kinase CLK1 (Homo sapiens, UniProt P49759). As to the kind of experiment: Selectivity interaction (SelectScreen profiling (Invitrogen)) EUB0000607a CLK1. The note with it: at 2 µM.
Chain of Dual specificity protein kinase CLK1 (P49759 whole entry, looked up): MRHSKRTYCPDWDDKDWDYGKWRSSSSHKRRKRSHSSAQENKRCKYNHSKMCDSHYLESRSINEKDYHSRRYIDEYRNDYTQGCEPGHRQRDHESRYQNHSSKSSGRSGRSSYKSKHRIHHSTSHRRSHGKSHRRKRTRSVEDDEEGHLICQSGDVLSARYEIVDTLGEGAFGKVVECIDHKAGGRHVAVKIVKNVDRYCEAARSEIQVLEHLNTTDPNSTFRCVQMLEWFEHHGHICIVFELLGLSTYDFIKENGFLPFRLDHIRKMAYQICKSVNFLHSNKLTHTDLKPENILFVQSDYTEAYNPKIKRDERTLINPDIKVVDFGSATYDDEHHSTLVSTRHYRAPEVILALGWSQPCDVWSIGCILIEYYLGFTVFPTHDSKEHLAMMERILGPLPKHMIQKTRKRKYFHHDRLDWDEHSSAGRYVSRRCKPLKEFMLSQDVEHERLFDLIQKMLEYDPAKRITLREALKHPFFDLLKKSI
The target in experiment [4] is T1, Histone-lysine N-methyltransferase EHMT1 (Homo sapiens) (UniProt Q9H9B1).
T1 sequence (whole entry): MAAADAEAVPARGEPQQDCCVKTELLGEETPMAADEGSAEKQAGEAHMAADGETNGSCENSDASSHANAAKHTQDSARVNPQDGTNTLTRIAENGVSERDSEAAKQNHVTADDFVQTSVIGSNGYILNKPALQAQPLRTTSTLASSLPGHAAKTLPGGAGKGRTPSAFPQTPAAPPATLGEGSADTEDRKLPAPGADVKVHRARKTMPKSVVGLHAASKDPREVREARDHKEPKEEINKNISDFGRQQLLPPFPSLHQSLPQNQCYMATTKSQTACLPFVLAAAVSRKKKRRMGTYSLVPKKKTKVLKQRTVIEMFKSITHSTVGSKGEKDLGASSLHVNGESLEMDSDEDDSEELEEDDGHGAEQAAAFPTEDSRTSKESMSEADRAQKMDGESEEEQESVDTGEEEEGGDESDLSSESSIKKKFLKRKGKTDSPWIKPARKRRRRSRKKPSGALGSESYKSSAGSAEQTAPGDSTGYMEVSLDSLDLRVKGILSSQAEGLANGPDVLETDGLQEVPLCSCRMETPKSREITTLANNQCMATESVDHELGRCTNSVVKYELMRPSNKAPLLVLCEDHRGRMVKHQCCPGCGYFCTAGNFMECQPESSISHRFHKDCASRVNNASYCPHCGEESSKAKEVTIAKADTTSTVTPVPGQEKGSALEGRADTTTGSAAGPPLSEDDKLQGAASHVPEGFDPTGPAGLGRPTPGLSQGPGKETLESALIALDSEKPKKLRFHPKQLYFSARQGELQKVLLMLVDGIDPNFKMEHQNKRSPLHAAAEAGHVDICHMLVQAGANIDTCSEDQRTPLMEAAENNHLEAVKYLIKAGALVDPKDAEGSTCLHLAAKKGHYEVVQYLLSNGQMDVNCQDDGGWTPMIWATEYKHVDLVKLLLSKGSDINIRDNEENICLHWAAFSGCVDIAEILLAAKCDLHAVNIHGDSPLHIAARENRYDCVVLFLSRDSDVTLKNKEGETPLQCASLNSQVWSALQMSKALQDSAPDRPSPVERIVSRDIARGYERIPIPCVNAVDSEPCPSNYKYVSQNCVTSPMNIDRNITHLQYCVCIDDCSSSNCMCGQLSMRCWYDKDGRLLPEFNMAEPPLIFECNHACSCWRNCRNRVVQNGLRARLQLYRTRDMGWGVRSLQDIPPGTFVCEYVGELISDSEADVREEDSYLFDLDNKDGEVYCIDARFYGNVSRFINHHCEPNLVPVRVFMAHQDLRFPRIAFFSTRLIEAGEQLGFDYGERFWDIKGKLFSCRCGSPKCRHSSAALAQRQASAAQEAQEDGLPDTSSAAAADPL
The note with it: at 1 µM.

Experiment [5] has as its target T2, Inhibitor of nuclear factor kappa-B kinase subunit beta (Homo sapiens) (UniProt O14920).
T2 sequence (whole entry): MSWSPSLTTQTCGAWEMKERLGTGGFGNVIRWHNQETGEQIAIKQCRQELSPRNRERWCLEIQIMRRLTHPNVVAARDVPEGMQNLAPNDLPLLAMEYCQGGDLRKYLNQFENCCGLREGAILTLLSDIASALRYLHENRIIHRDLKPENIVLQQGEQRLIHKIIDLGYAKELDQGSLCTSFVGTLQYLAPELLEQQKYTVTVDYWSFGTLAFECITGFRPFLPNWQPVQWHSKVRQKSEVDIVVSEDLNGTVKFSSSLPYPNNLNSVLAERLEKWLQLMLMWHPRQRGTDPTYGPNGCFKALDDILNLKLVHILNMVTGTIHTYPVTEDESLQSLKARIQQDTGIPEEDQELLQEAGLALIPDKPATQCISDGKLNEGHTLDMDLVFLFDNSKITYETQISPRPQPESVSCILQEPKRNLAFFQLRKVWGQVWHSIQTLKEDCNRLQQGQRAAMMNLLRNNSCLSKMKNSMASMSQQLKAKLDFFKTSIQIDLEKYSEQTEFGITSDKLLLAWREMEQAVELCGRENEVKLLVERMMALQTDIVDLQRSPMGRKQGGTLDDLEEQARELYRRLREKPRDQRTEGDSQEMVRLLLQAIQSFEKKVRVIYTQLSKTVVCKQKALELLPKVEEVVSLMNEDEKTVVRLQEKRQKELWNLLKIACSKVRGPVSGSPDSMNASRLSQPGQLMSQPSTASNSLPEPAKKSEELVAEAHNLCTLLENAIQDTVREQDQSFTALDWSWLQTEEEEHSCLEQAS
Kind of experiment: Selectivity interaction (KinomeScan (DiscoverX)) EUB0000045b IKBKB.

Experiment [6] deals with T3, Protein kinase C epsilon type (Homo sapiens) (UniProt Q02156).
T3 sequence (whole entry): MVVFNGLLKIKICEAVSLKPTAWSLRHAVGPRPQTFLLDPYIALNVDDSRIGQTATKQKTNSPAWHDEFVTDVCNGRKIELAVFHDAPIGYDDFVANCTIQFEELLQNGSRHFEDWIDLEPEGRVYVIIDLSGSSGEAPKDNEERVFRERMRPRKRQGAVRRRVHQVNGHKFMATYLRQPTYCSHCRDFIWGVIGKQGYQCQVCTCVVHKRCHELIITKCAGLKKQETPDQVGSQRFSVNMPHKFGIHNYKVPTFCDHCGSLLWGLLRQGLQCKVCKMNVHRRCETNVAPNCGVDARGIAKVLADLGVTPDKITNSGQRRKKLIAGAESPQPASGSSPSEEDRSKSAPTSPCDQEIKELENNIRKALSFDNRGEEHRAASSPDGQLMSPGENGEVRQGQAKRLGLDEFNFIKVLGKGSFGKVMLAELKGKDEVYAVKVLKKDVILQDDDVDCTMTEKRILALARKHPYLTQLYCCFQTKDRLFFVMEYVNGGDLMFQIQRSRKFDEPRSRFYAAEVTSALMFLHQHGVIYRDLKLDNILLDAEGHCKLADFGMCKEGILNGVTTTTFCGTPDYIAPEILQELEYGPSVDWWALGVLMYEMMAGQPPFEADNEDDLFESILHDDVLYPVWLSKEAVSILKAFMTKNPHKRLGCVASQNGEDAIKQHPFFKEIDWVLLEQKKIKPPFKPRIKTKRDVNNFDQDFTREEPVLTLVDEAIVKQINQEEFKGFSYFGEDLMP
Kind of experiment: Selectivity interaction (KinomeScan (DiscoverX)) EUB0001049a PRKCE. As to conditions: at 1 µM.

Chain of Dual specificity mitogen-activated protein kinase kinase 2 (Homo sapiens) (P36507 whole entry): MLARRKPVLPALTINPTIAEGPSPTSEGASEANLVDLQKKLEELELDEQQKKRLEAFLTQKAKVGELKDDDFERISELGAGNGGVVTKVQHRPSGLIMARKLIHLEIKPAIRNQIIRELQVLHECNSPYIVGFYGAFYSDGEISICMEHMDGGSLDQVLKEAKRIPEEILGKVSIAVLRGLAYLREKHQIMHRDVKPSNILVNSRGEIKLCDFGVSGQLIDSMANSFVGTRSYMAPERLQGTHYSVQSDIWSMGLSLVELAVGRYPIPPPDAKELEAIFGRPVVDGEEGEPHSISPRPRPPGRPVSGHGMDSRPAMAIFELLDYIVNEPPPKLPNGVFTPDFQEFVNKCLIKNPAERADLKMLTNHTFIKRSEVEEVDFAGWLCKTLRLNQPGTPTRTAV
Chain of Serine/threonine-protein kinase PLK3 (Q9H4B4 whole entry, looked up): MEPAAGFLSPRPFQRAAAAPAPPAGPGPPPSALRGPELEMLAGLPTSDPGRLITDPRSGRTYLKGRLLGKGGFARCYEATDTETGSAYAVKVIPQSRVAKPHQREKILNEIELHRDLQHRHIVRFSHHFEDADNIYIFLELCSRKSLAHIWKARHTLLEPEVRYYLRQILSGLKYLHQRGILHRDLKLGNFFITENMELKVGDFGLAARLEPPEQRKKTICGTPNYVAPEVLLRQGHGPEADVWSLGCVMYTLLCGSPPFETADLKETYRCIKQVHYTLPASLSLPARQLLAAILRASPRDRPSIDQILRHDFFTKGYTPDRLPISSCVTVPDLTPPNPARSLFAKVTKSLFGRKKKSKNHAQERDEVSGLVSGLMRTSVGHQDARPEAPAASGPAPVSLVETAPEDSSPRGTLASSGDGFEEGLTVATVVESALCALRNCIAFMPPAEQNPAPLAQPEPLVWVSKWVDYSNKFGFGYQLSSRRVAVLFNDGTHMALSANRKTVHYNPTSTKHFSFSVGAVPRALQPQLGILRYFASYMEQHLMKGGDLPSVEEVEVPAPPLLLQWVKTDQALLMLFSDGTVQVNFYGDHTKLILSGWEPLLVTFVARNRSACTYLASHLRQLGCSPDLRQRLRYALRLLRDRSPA

As for `Cc1cc(F)c(C(=O)Nc2cccc(-c3nncn3C(C)C)n2)cc1-n1cnc(C2CC2)c1`, the % of control in experiment [1] is 97%. As for `CNC(=O)Nc1ccc(-c2nc(N3CC4CCC(C3)O4)c3cnn(C4CCC5(CC4)OCCO5)c3n2)cc1`, the % of control in experiment [2] is 100%. Further, the % of inhibition in experiment [3] was -3%. `CNCCN1CCC(c2cc(CN(C)C(=O)c3cccc(Oc4ccccc4)c3)ccn2)CC1`: the % activity in experiment [4] is above 90%. As for `C=CC(=O)Nc1cc(-n2c(=O)ccc3cnc4ccc(-c5ccc(NS(C)(=O)=O)cc5)cc4c32)ccc1C`, the % of control in experiment [5] (at 1 µM) was 93%; in experiment [5] (at 10 µM), 100%. In turn, `COc1cc(Nc2nc(C)cc(-c3cnn4nc(OC)ccc34)n2)cc(C(F)(F)F)c1` registered a % of control in experiment [6] of 100%.
